Test results taken from US7812183B2, “Benzopyran derivatives as potassium channel openers” (Janssen Pharmaceutica NV, priority 2005, dated 2010).

Molecular target: T1, KATP channels (Homo sapiens, UniProt O60706+Q14654)
T1 construct: TE671 human medulloblastoma cells were obtained from ATCC; host or cells: TE671 human medulloblastoma cells
Test: Potassium Channel Assay (FLIPR membrane potential, TE671 cells)
Assay type: cell-based
Details: TE671 human medulloblastoma cells, Membrane Potential Assay Dye, room temperature, hyperpolarization from KATP channel opening
Protocol: TE671 human medulloblastoma cells were obtained from ATCC and grown in Dulbecco's modified Eagle's medium (DMEM) supplemented with 10% fetal bovine serum, 100 U/ml penicillin and 100 U/ml streptomycine.
The day before testing, the cells were plated in black 96-well plates at 50K/well. On the day of testing, the growth media was removed, then 100 μl of FLIPR buffer (20 mM HEPES, 120 mM NaCl, 2 mM KCl, 2 mM CaCl2, 1 mM MgCl2, 5 mM Glucose) and 100 μl of Membrane Potential Assay Dye (Molecular Devices) dissolved in FLIPR buffer were added to each well. The cells were incubated at room temperature for 15 to 30 min.
The effect of test compounds on KATP channels were evaluated on a fluorometric imaging plate reader (FLIPR, Molecular Devices) at room temperature. After a baseline period, 50 μl of 5× stock solution of test compound prepared in FLIPR buffer was added and fluorescent change was monitored for 3 minutes. After this reading, glyburide, a KATP channel blocker, was added to a final concentration of 5 μM to check the specificity of the test compound as a KATP channel openers. Hyperpolarization resulting from KATP channel opening was observed as a decrease in fluorescent intensity.
Representative compounds of the present invention were tested according to the procedure described above, with results as listed in Table 7, below.

T1 sequence (O60706 1-1549 isoform O60706-2): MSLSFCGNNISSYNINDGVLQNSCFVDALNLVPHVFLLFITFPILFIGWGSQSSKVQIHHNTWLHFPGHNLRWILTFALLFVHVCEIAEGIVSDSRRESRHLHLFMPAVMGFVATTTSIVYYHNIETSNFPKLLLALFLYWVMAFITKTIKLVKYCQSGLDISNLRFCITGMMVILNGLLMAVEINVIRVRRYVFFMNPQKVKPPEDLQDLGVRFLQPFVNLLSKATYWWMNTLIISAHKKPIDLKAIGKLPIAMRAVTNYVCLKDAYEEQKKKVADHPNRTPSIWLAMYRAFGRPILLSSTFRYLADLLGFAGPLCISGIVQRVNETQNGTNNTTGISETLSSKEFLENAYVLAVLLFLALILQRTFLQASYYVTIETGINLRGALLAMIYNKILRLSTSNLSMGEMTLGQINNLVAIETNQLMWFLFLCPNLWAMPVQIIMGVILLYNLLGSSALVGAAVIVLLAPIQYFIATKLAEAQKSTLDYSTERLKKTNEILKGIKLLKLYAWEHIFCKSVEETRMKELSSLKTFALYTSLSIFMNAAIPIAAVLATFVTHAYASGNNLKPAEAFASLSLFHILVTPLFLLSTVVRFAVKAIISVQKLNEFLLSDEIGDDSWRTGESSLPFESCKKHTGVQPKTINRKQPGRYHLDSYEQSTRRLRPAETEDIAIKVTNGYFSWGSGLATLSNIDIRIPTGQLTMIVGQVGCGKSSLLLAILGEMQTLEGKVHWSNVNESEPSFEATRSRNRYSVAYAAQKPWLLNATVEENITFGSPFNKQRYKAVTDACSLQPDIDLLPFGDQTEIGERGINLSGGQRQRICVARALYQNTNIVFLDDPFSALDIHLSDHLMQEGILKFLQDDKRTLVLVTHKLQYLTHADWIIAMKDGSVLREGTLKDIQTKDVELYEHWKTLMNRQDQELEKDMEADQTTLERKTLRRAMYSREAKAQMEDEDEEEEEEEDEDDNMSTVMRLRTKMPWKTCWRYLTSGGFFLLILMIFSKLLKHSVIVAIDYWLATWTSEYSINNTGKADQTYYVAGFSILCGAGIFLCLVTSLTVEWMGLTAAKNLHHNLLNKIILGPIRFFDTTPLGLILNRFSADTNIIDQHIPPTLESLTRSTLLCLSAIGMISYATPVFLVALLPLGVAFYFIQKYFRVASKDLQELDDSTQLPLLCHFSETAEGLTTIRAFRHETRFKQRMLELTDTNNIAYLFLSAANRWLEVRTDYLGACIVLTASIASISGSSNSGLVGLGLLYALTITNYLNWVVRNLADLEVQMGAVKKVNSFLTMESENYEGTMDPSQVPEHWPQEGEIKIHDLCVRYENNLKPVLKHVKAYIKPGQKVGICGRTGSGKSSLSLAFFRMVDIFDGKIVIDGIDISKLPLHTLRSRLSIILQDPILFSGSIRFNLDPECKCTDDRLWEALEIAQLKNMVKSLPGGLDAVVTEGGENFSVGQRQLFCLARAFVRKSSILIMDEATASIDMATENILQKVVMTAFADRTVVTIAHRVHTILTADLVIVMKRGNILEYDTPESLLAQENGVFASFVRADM
T1 sequence (Q14654 whole entry): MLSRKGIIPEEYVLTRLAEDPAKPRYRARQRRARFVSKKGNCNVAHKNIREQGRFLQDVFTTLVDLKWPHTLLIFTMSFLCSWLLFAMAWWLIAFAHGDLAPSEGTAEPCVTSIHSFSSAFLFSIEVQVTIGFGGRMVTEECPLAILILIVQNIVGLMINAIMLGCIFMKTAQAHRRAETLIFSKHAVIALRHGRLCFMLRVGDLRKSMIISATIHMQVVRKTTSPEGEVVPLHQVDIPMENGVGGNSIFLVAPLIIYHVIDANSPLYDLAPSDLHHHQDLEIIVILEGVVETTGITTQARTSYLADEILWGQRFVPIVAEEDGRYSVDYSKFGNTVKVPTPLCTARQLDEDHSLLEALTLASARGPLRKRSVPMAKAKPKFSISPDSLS

SMILES	EC50
CCN(CC)S(=O)(=O)c1ccc2c(c1)[C@@H](Nc1noc3ccc(Cl)cc13)[C@H](O)C(C)(C)O2 (racemic) [Compound 80, 4R-(5-Chloro-benzo[d]isoxazol-3-ylamino)-3S-hydroxy-2,2-dimethyl-chroman-6-sulfonic acid diethylamide]	> 30 µM
CC1(C)Oc2ccc(C#N)cc2[C@@H](Nc2nc3cc([N+](=O)[O-])ccc3s2)[C@@H]1O (racemic) [Compound 6, 3-Hydroxy-2,2-dimethyl-4-(5-nitro-benzothiazol-2-ylamino)-chroman-6-carbonitrile]	3.09 µM
CC1(C)Oc2ccc(C#N)cc2[C@@H](Nc2nc(=O)c3cc(Cl)ccc3[nH]2)[C@@H]1O [Compound 64, (3S,4R)-4-(6-Chloro-4-oxo-1,4-dihydro-quinazolin-2-ylamino)-3-hydroxy-2,2-dimethyl-chroman-6-carbonitrile]	9.12 µM
CC1(C)Oc2ccc(C#N)cc2[C@@H](N2CCN(c3ccc(F)cc3)CC2)[C@@H]1O (racemic) [Compound 48, 4-[4-(4-Fluoro-phenyl)-piperazin-1-yl]-3-hydroxy-2,2-dimethyl-chroman-6-carbonitrile]	6.34 µM
N#Cc1ccc2c(c1)[C@@H](NC(=O)c1cccc(Cl)c1)[C@H](OC(=O)c1cccc(Cl)c1)C1(CCS(=O)(=O)CC1)O2 [Compound 202, (3S,4R)-3-Chloro-benzoic acid 4-(3-chloro-benzoylamino)-6-cyano-2,2-(tetrahydro-4-sulfonylpyranyl)-chroman-3-yl ester]	> 30 µM
CC1(C)Oc2ccc(C#N)cc2[C@@H](Nc2nc(=O)c3cc(Cl)ccc3[nH]2)[C@@H]1O (racemic) [Compound 7, 4-(6-Chloro-4-oxo-1,4-dihydro-quinazolin-2-ylamino)-3-hydroxy-2,2-dimethyl-chroman-6-carbonitrile]	2.29 µM
CC1(C)Oc2ccc(C#N)cc2[C@@H](Nc2noc3cc(Cl)ccc23)[C@@H]1O [Compound 67, (3S,4R)-4-(6-Chloro-benzo[d]isoxazol-3-ylamino)-3-hydroxy-2,2-dimethyl-chroman-6-carbonitrile]	6.18 µM
CC1(C)C=C(Nc2nc(=O)c3ccccc3[nH]2)c2cc(C#N)ccc2O1 [Compound 46, 2,2-Dimethyl-4-(4-oxo-1,4-dihydro-quinazolin-2-ylamino)-2H-chromene-6-carbonitrile]	28.3 µM
CC1(C)Oc2ccc(C#N)cc2[C@@H](S(=O)(=O)c2nc3cc(Cl)c(F)cc3[nH]2)[C@@H]1O [Compound 72, 4R-(5-Chloro-6-fluoro-1H-benzoimidazole-2-sulfonyl)-3S-hydroxy-2,2-dimethyl-chroman-6-carbonitrile]	20.2 µM
CC1(C)Oc2ccc(C#N)cc2[C@@H](Sc2nc3cc(Cl)ccc3[nH]2)C1O (stereo in doubt) [Compound 29, (3S,4R)-4-(5-Chloro-1H-benzoimidazol-2-ylsulfanyl)-3-hydroxy-2,2-dimethyl-chroman-6-carbonitrile]	6.18 µM
CC1(C)Oc2ccc(S(=O)(=O)c3cccc(F)c3)cc2[C@@H](Nc2noc3ccc(Cl)cc23)[C@@H]1O [Compound 103, 4R-(5-Chloro-benzo[d]isoxazol-3-ylamino)-6-(3-fluoro-benzenesulfonyl)-2,2-dimethyl-chroman-3S-ol]	7.77 µM
CC1(C)C=C(n2cncc2-c2ccc(Cl)cc2)c2cc(C#N)ccc2O1 [Compound 63, 4-[5-(4-Chloro-phenyl)-imidazol-1-yl]-2,2-dimethyl-2H-chromene-6-carbonitrile]	7.9 µM
CC1(C)Oc2ccc(C#N)cc2[C@@H](n2nc(N)c3ccc(Br)cc32)[C@@H]1O [Compound 35, 4R-(3-Amino-6-bromo-indazol-1-yl)-3S-hydroxy-2,2-dimethyl-chroman-6-carbonitrile]	4.4 µM
CC1(C)Oc2ccc(C#N)cc2[C@@H](N2C(=O)C(=O)c3cc(Cl)ccc32)[C@@H]1O [Compound 24, (3S,4R)-4-(5-Chloro-2,3-dioxo-2,3-dihydro-indol-1-yl)-3-hydroxy-2,2-dimethyl-chroman-6-carbonitrile]	3.64 µM
CC1(C)Oc2ccc(C#N)cc2[C@@H](Sc2nccc(C(F)(F)F)n2)[C@@H]1O [Compound 43, 3S-Hydroxy-2,2-dimethyl-4R-(4-trifluoromethyl-pyrimidin-2-ylsulfanyl)-chroman-6-carbonitrile]	> 30 µM
CC1(C)Oc2ccc(C#N)cc2[C@@H](Nc2nc3cc(F)ccc3s2)[C@@H]1O (racemic) [Compound 5, 4-(5-Fluoro-benzothiazol-2-ylamino)-3-hydroxy-2,2-dimethyl-chroman-6-carbonitrile]	8.44 µM
CC1(C)Oc2ccc(C#N)cc2[C@@H](N2C(=O)c3ccc(Cl)cc3C2=O)[C@@H]1O [Compound 115, 4-(5-Chloro-1,3-dioxo-1,3-dihydro-isoindol-2-yl)-3-hydroxy-2,2-dimethyl-chroman-6-carbonitrile]	3.16 µM
CC1(C)Oc2ccc(C#N)cc2[C@@H](Nc2nc3cc(Cl)ccc3o2)[C@@H]1O (racemic) [Compound 2, 4-(5-Chloro-benzooxazol-2-ylamino)-3-hydroxy-2,2-dimethyl-chroman-6-carbonitrile]	16.5 µM
CCN(CC)S(=O)(=O)c1ccc2c(c1)[C@@H](n1oc3ccc(Cl)cc3c1=O)[C@H](O)C(C)(C)O2 [Compound 86, 4R-(5-Chloro-3-oxo-3H-benzo[d]isoxazol-2-yl)-3S-hydroxy-2,2-dimethyl-chroman-6-sulfonic acid diethylamide]	> 30 µM
CC1(C)Oc2ccc(C#N)cc2[C@@H](SC2=NCCc3ccccc32)[C@@H]1O [Compound 42, 4R-(3,4-Dihydro-isoquinolin-1-ylsulfanyl)-3S-hydroxy-2,2-dimethyl-chroman-6-carbonitrile]	> 30 µM
CC1(C)Oc2ccc(C#N)cc2[C@@H](Oc2nsc3cc([N+](=O)[O-])ccc23)[C@@H]1O [Compound 41, 3S-Hydroxy-2,2-dimethyl-4R-(6-nitro-benzo[d]isothiazol-3-yloxy)-chroman-6-carbonitrile]	4.1 µM
CC1(C)Oc2ccncc2[C@@H](n2nc(-c3ccc(Cl)cc3)ccc2=O)[C@@H]1O (racemic) [Compound 112, 6-(4-Chloro-phenyl)-2-(3-hydroxy-2,2-dimethyl-3,4-dihydro-2H-pyrano[3,2-c]pyridin-4-yl)-2H-pyridazin-3-one]	29.8 µM

Further lines, results first:

EC50	SMILES
1.5 µM	CC1(C)Oc2ccc(C#N)cc2[C@@H](n2nccc2-c2ccc(Cl)cc2)[C@@H]1O [Compound 10, 4R-[5-(4-Chloro-phenyl)-pyrazol-1-yl]-3S-hydroxy-2,2-dimethyl-chroman-6-carbonitrile]
0.26 µM	CC1(C)Oc2ccc(C#N)cc2[C@@H](Oc2noc3cc(Cl)ccc23)[C@@H]1O [Compound 22, 4R-(6-Chloro-benzo[d]isoxazol-3-yloxy)-3S-hydroxy-2,2-dimethyl-chroman-6-carbonitrile]
13.8 µM	CC1(C)Oc2ccncc2[C@@H](n2cncc2-c2ccc(Cl)cc2)[C@@H]1O (racemic) [Compound 113, 4-[5-(4-Chloro-phenyl)-imidazol-1-yl]-2,2-dimethyl-3,4-dihydro-2H-pyrano[3,2-c]pyridin-3-ol]
7.07 µM	CC1(C)Oc2ccc(C#N)cc2[C@@H](Oc2noc3ccc(Cl)cc23)[C@@H]1O [Compound 38, (3S,4R)-4-(5-Chloro-benzo[d]isoxazol-3-yloxy)-3-hydroxy-2,2-dimethyl-chroman-6-carbonitrile]
6.94 µM	CC1(C)Oc2ccc(C#N)cc2[C@@H](Oc2noc3ccccc23)[C@@H]1O [Compound 23, (3S,4R)-4-(Benzo[d]isoxazol-3-yloxy)-3-hydroxy-2,2-dimethyl-chroman-6-carbonitrile]
> 30 µM	CC1(C)Oc2ccc(Cl)cc2[C@@H](Oc2ccn(-c3ccccc3)n2)[C@@H]1O (racemic) [Compound 60, 6-Chloro-2,2-dimethyl-4-(1-phenyl-1H-pyrazol-3-yloxy)-chroman-3-ol]
3.9 µM	CC1(C)Oc2ccc(C#N)cc2[C@@H](Oc2ccc(-c3ccccc3)nn2)[C@@H]1O (racemic) [Compound 52, 3-Hydroxy-2,2-dimethyl-4-(6-phenyl-pyridazin-3-yloxy)-chroman-6-carbonitrile]
> 30 µM	CC1(C)Oc2ccc(S(=O)(=O)c3ccc(Cl)cc3)cc2[C@@H](Oc2noc3cc(Cl)ccc23)[C@@H]1O [Compound 101, 6-(4-Chloro-benzenesulfonyl)-4R-(6-chloro-benzo[d]isoxazol-3-yloxy)-2,2-dimethyl-chroman-3S-ol]
7.45 µM	CC1(C)Oc2ccc(C#N)cc2[C@@H](n2cncc2-c2ccc(Cl)cc2)[C@@H]1O (racemic) [Compound 18, 4-[5-(4-Chloro-phenyl)-imidazol-1-yl]-3-hydroxy-2,2-dimethyl-chroman-6-carbonitrile]
> 30 µM	CC1(C)Oc2ccc(Cl)cc2[C@@H](n2ccnc2-c2ccccc2)[C@@H]1O (racemic) [Compound 49, 6-Chloro-2,2-dimethyl-4-(2-phenyl-imidazol-1-yl)-chroman-3-ol]
3.16 µM	CC1(C)Oc2ccc(Cl)cc2[C@@H](N2C(=O)CCN2c2ccccc2)[C@@H]1O (racemic) [Compound 13, 2-(6-Chloro-3-hydroxy-2,2-dimethyl-chroman-4-yl)-1-phenyl-pyrazolidin-3-one]
